Structures are written as SMILES. pIC50: −log10 of the molar value.

Cbl-b protein and UbcH5B-Ub, sequence (Q13191 whole entry, species assumed): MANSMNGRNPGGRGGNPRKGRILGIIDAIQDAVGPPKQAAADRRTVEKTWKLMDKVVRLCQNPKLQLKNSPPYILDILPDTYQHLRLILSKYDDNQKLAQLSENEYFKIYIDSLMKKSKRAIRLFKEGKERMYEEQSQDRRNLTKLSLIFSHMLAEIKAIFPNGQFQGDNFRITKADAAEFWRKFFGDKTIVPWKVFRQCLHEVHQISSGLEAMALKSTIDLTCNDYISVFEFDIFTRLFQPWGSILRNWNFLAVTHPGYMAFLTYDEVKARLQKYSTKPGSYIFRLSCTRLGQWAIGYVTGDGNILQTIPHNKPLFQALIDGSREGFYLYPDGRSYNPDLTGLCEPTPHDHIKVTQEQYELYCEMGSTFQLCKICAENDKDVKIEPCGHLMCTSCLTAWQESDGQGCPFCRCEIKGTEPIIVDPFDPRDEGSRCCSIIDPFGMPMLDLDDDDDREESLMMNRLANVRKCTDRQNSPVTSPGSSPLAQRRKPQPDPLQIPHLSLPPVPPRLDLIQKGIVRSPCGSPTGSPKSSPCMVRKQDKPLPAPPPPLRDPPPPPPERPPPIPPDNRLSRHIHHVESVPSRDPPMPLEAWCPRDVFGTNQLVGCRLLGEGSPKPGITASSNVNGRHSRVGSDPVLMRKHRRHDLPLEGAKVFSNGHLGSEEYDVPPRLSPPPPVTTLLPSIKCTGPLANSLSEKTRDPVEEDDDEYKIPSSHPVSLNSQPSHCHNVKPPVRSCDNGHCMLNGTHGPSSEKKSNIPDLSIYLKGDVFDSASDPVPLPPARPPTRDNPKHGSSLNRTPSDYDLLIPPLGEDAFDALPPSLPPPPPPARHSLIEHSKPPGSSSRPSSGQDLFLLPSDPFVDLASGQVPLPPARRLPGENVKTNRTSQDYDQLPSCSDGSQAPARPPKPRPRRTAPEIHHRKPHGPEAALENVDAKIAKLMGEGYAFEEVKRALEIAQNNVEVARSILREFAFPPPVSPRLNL

This assay concerns the target Cbl-b protein and UbcH5B-Ub (Homo sapiens (Human), UniProt Q13191). The assay can be described thus: Cbl-b activity assay (HTRF, interaction between Cbl-b protein and UbcH5B-Ub). Format: biochemical. Conditions: inhibition of interaction between Biotin-Cbl-b protein and Eu-Ubquitin-UbcH5B, HTRF signal 665 nm/615 nm. The method, then: Experiment purpose: Testing of inhibitory activity of compounds on the interaction between Cbl-b protein and UbcH5B-Ub
Experimental method: Eu-Ubquitin-UbcH5B was prepared by incubating Eu-Ubquitin (Cisbio) with UbcH5B (ENZO), E1 (ENZO) at 37° C. for 4 hours. Eu-Ubquitin-UbcH5B was aliquoted and stored at −80° C. Cbl-b activity assay was performed in 384-well plates (Perkin Elmer). 100 nL of 3-fold serial dilutions of compounds (final concentration 10 μM-0.5 nM, starting concentration 10 μM, 3-fold dilution, 10 points, 10th point being 0.5 nM) and 5 μL of 50 nM Biotin-Cbl-b protein (Sigma) were incubated for 1 hour at room temperature, and the reaction buffer was 50 mM HEPES pH 7.0 (Gibco), 100 mM NaCl (Sigma), 0.01% Triton X-100 (Sigma), 0.01% BSA (Sigma) and 1 mM DTT (Invitrogen). 5 μL of Src mixed solution (40 nM Src (R&D), 2 mM ATP (Sigma), 10 mM MgCl2 (Sigma)) was added to the reaction plate and incubated at room temperature for 3 hours. 10 μL of detection solution (12.5 nM Strepdividin-XL665 (Cisbio), 500 nM Eu-Ubquitin-UbcH5B, […] (Invitrogen), 0.004% BSA (Sigma)) was added to the reaction plate, incubated overnight at room temperature, and the HTRF signal (665 nm/615 nm) was read on Envision (Perkin Elmer). IC50 was calculated using IDBS XLfit.
For orientation: TR-FRET usually uses a lanthanide donor and a delayed reading to cut background.
Consider `Cc1cc(CN2CCC[C@H](C)C2)cc2c(=O)c(-c3cc(C(F)(F)F)cc(C4(c5nncn5C)CC(C)C4)c3)coc12` (stereo partly drawn) [Compound 66, (S)-8-methyl-3-(3-(3-methyl-1-(4-methyl-4H-1,2,4-triazol-3-yl)cyclobutyl)-5-trifluoromethylphenyl)-6-((3-methylpiperidin-1-yl)methyl)-4H-chromen-4-one], for which the pIC50 was 7.05.
Turning to `CC1CC(c2cccc(-c3cnc4c(F)cc(CN5CCC[C@H](C)C5)cn4c3=O)c2)(c2nncn2C)C1` (stereo partly shown) [Compound 9], the pIC50 was 6.89.
As to `Cc1cc(CN2CCC[C@H](C)C2)cn2c(=O)c(-c3cccc(C4(c5nncn5C)CC(C)C4)c3)cnc12` (stereo partly shown) [Compound 11], the pIC50 was 7.51.
For the compound `Cc1cc(CN2CCC[C@H](C)C2)cc2c(=O)c(-c3cccc(C4(c5nncn5C)CC(F)(F)C4)c3)coc12` [Compound 73, (S)-3-(3-(3,3-difluoro-1-(4-methyl-4H-1,2,4-triazol-3-yl)cyclobutyl)phenyl)-8-methyl-6-((3-methylpiperidin-1-yl)methyl)-4H-chromen-4-one], the pIC50 is 7.19.
`Cc1cc(CN2CCC[C@H](C)C2)cc2c(=O)c(-c3cccc(C(c4nncn4C)C4CC4)c3)coc12` (stereo partly drawn) [Compound 64, 3-(3-(cyclopropyl(4-methyl-4H-1,2,4-triazol-3-yl)methyl)phenyl)-8-methyl-6-(((S)-3-methylpiperidin-1-yl)methyl)-4H-chromen-4-one] showed a pIC50 of 7.42.
The compound `Cc1cc(CN2CCC[C@H](C)C2)cc2c(=O)c(-c3cccc([C@](F)(c4nncn4C)C4CC4)c3)coc12` [Compound 120-P1] had a pIC50 of 6.67.
For `CC1CC(c2cccc(-c3cnc4ccc(CN5CCC[C@H](C)C5)cn4c3=O)c2)(c2nncn2C)C1` (stereo partly drawn) [Compound 1, 3-[3-[3-methyl-1-(4-methyl-4H-1,2,4-triazol-3-yl)cyclobutyl]phenyl]-7-[[(3S)-3-methyl-1-piperidyl]methyl]pyrido[1,2-a]pyrimidin-4-one] the value was 7.12; for `CC1CC(c2cncc(-c3coc4c(C5CC5)cc(CN5CCC[C@H](C)C5)cc4c3=O)c2)(c2nncn2C)C1` (stereo partly drawn) [Compound 75, (S)-8-cyclopropyl-3-(5-(3-methyl-1-(4-methyl-4H-1,2,4-triazol-3-yl)cyclobutyl)pyridin-3-yl)-6-((3-methylpiperidin-1-yl)methyl)-4H-chromen-4-one], 8.13; for `Cc1cc(CN2CCC[C@H](C)C2)cc2c(=O)c(-c3cccc([C@@](F)(c4nncn4C)C4CC4)c3)coc12` [Compound 120-P2, 3-(3-((R)-cyclopropylfluoro(4-methyl-4H-1,2,4-triazol-3-yl)methyl)phenyl)-8-methyl-6-(((S)-3-methylpiperidin-1-yl)methyl)-4H-chromen-4-one], 8.11.
The compound `C[C@H]1CCCN(Cc2cc(C(F)(F)F)c3ncc(-c4cccc(C(c5nncn5C)C5CC5)c4)c(=O)n3c2)C1` (stereo partly drawn) [Compound 63, 3-(3-(cyclopropyl(4-methyl-4H-1,2,4-triazol-3-yl)methyl)phenyl)-7-(((S)-3-methylpiperidin-1-yl)methyl)-9-trifluoromethyl-4H-pyrido[1,2-a]pyrimidin-4-one] showed a pIC50 of 7.38.
For `Cc1cc(CN2CCC[C@H](C)C2)cc2c(=O)c(-c3cccc(C(C)(C)c4nncn4C)c3)coc12` [Compound 67, (S)-8-methyl-3-(3-(2-(4-methyl-4H-1,2,4-triazol-3-yl)propan-2-yl)phenyl)-6-((3-methylpiperidin-1-yl)methyl)-4H-chromen-4-one] the value was 7.02; for `COc1cc(CN2CCC[C@H](C)C2)cn2c(=O)c(-c3cccc(C4(c5nncn5C)CC(C)C4)c3)cnc12` (stereo partly shown) [Compound 3], 6.53; for `Cc1cc(CN2CCN(C)C[C@@H]2C(C)C)cc2c(=O)c(-c3cccc(C4(c5nncn5C)CC(C)C4)c3)coc12` (stereo partly shown) [Compound 88], 7.49.
In turn, `CC1CC(c2cccc(-c3cnc4c(C(F)(F)F)cc(CN5CC6CCC5C6)cn4c3=O)c2)(c2nncn2C)C1` (stereo not shown) [Compound 17] showed a pIC50 of 6.78.
For `CC1CC(c2cccc(-c3cnc4c(C(F)(F)F)cc(CN5CCN(C)C[C@@H]5C(C)C)cn4c3=O)c2)(c2nncn2C)C1` (stereo partly shown) [Compound 89] the value was 7.38.
For `CCc1cc(CN2CCC[C@H](C)C2)cn2c(=O)c(-c3cccc(C4(c5nncn5C)CC(C)C4)c3)cnc12` (stereo partly shown) [Compound 12] the value was 7.19; for `CC1CC(c2cccc(-c3cnc4c(Cl)cc(CN5CCC[C@H](C)C5)cn4c3=O)c2)(c2nncn2C)C1` (stereo partly shown) [Compound 10], 7.37.
For the compound `Cc1cc(CN2CCC(F)(F)[C@H](C)C2)cc2c(=O)c(-c3cccc(C(F)(c4nncn4C)C4CC4)c3)coc12` (stereo partly drawn) [Compound 129, 3-(3-(cyclopropylfluoro(4-methyl-4H-1,2,4-triazol-3-yl)methyl)phenyl)-6-(((R)-4,4-difluoro-3-methylpiperidin-1-yl)methyl)-8-methyl-4H-chromen-4-one], the pIC50 was 7.75.
Regarding `C[C@H]1CCCN(Cc2cc(C(F)(F)F)c3ncc(-c4cccc(C5(Cc6nncn6C)COC5)c4)c(=O)n3c2)C1` [Compound 5], the pIC50 is 6.35.
As to `CC1CC(c2cccc(-c3cnc4c(C5CC5)cc(CN5CCC[C@H](C)C5)cn4c3=O)c2)(c2nncn2C)C1` (stereo partly shown) [Compound 13], the pIC50 is 7.50.
The compound `CC1CC(c2cccc(-c3cnc4c(C(F)(F)F)cc(CN5CCO[C@H](C)C5)cn4c3=O)c2)(c2nncn2C)C1` (stereo partly shown) [Compound 4] gave a pIC50 of 6.57.
In the case of `Cc1cc(CN2CCC[C@H](C)C2)cc2c(=O)c(-c3cccc(C4(c5nncn5C)CCO4)c3)coc12` (stereo partly drawn) [Compound 71, 8-methyl-3-(3-(2-(4-methyl-4H-1,2,4-triazol-3-yl)oxetan-2-yl)phenyl)-6-(((S)-3-methylpiperidin-1-yl)methyl)-4H-chromen-4-one], the pIC50 is 6.69.
As for `CC1CC(c2cccc(-c3coc4c(C5CC5)cc(CN5CCC[C@H](C)C5)cc4c3=O)c2)(c2nncn2C)C1` (stereo partly drawn) [Compound 74, (S)-8-cyclopropyl-3-(3-(3-methyl-1-(4-methyl-4H-1,2,4-triazol-3-yl)cyclobutyl)phenyl)-6-((3-methylpiperidin-1-yl)methyl)-4H-chromen-4-one], the pIC50 was 7.72.
For `CC1CC(c2cccc(-c3cnc4sc(CN5CCC[C@H](C)C5)cn4c3=O)c2)(c2nncn2C)C1` (stereo partly drawn) [Compound 59, (S)-6-(3-(3-methyl-1-(4-methyl-4H-1,2,4-triazol-3-yl)cyclobutyl)phenyl)-2-((3-methylpiperidin-1-yl)methyl)-5H-thiazolo[3,2-a]pyrimidin-5-one] the value was 7.37; for `CC1CC(c2cccc(-c3cnc4c(Br)cc(CN5CCC[C@H](C)C5)cn4c3=O)c2)(c2nncn2C)C1` (stereo partly shown) [Compound 14], 7.53.

One may read the pIC50 as the IC50 on a negative log10 scale, so that one unit is a factor of ten. Read a low pIC50 as a large IC50.

The values above are taken from patent US20250042896A1, “POLYCYCLIC COMPOUND AS CBL-B INHIBITOR” (HAINAN SIMCERE ZAIMING PHARMACEUTICAL CO., LTD., priority 2021, published 2025).
